Measured values: PMC4491657, “Design and Synthesis of Novel N-Arylsulfonyl-3-(2-yl-ethanone)-6-methylindole Derivatives as Inhibitors of HIV-1 Replication” (Pharmaceuticals, 2015)

Experiments:
HIV-1 IIIB = experiment: Syncytia assay (anti-HIV-1 activity in acutely infected C8166 cells); format: cell-based; settings: Human immunodeficiency virus 1, 72 h; concentration that reduces syncytia formation by 50%; C8166 cells infected with HIV-1 IIIB, M.O.I 0.06, 3 days; means of two separate experiments; read-out: EC50 (50% effective concentration)
Description: (§1) Cell line (C8166) and the laboratory-derived virus (HIV-1 IIIB) were obtained from the MRC, AIDS Reagent Project, London, UK. C8166 was maintained in RPMI-1640 supplemented with 10% heat-inactivated new born calf serum (Gibco, USA). The cells used in all experiments were in log-phase growth. The 50% HIV-1 IIIB tissue culture infectious dose (TCID50) in C8166 cells was determined and calculated by the Reed and Muench method. Virus stocks were stored in small aliquots at −70 °C [11].
In the presence of 100 μL of various concentrations of compounds, C8166 cells (4 × 10^5/mL) were infected with virus HIV-1IIIB at a multiplicity of infection (M.O.I) of 0.06. The final volume per well was 200 μL. Control assays were performed without the testing compounds in HIV-1IIIB infected and uninfected cultures. After 3 days of culture, the cytopathic effect (CPE) was measured by counting the number of syncytia. Percentage inhibition of syncytia formation was calculated and 50% effective concentration (EC50) was calculated. AZT (Sigma, USA) was used as a positive control. Therapeutic index (TI) = CC50/EC50 [13].

[1] = MTT-based cytotoxicity assay; settings: human, C8166 cells, concentration that causes 50% reduction in total C8166 cell number, means of two separate experiments, read-out: CC50 (50% cytotoxic concentration)
Description: as §1
Cellular toxicity of compounds 4a–f and 6 on C8166 cells was assessed by the MTT method as described previously. Briefly, cells were seeded on 96-well microtiter plate in the absence or presence of various concentrations of compounds in triplicate and incubated at 37 °C in a humid atmosphere of 5% CO2 for 3 days. The supernatants were discarded and MTT reagent (5 mg/mL in PBS) was added to each wells, then incubated for 4 h, 100 μL of 50% DMF-20% SDS was added. After the formazan was dissolved completely, the plates were read on a Bio-TekElx800 ELISA reader at 595/630 nm. The cytotoxic concentration that caused the reduction of viable C8166 cells by 50% (CC50) was determined from dose-response curve.

| EC50 (HIV-1 IIIB) | melting point | Structure (SMILES) | CC50 at 3 days [1] |
| --- | --- | --- | --- |
| 106 µM | 124 to 126 °C | Cc1ccc2c(C(=O)CN3CCCC3)cn(S(=O)(=O)c3ccccc3)c2c1 [Compound 4c, N-Phenylsulfonyl-3-[2-pyrrolidinoethanone]-6-methylindole] | 226 µM |
| 17.9 µM |  | Cc1ccc2c(C(=O)CN(C(C)C)C(C)C)cn(S(=O)(=O)c3ccccc3)c2c1 [Compound 4d, N-Phenylsulfonyl-3-[2-diisopropylaminoethanone]-6-methylindole] | 220 µM |
| 30 µM |  | CCCCNCC(=O)c1cn(S(=O)(=O)c2ccccc2)c2cc(C)ccc12 [Compound 4e, N-Phenylsulfonyl-3-[2-butylaminoethanone]-6-methylindole] | 43.8 µM |
| 9.42 µM |  | CCc1ccc(S(=O)(=O)n2cc(C(=O)CN3CCOCC3)c3ccc(C)cc32)cc1 [Compound 4f, N-(p-Ethyl)phenylsulfonyl-3-[2-morpholinoethanone]-6-methylindole] | > 469 µM |
| 4.62 µM | 122 to 124 °C | CCc1ccc(S(=O)(=O)n2cc(C(=O)CSc3nnc(-c4ccccc4)o3)c3ccc(C)cc32)cc1 [Compound 6, N-(p-Ethyl)phenylsulfonyl-3-[2-(5-phenyl-1,3,4-oxadiazole-2-yl-thio)ethanone]-6-methylindole] | 309 µM |

Continued, molecule first:

| Structure (SMILES) | EC50 (HIV-1 IIIB) | melting point | CC50 at 3 days [1] |
| --- | --- | --- | --- |
| Cc1cn([C@H]2C[C@H](N=[N+]=[N-])[C@@H](CO)O2)c(=O)[nH]c1=O [AZT, 3'-azido-3'-deoxythymidine, reference compound] | 0.0121 µM |  | 4260 µM |
| Cc1ccc2c(C(=O)CN3CCCCC3)cn(S(=O)(=O)c3ccccc3)c2c1 [Compound 4a, N-Phenylsulfonyl-3-[2-piperidinylethanone]-6-methylindole] | 32.8 µM | 132 to 134 °C | > 504 µM |
| Cc1ccc2c(C(=O)CN3CCOCC3)cn(S(=O)(=O)c3ccccc3)c2c1 [Compound 4b, N-Phenylsulfonyl-3-[2-morpholinoethanone]-6-methylindole] | 56.6 µM | 174 to 176 °C | > 502 µM |
